Laboratory results from patent US20250312343A1, “COMBINATION THERAPIES USING PRMT5 INHIBITORS AND KRAS G12D INHIBITORS FOR THE TREATMENT OF CANCER” (MIRATI THERAPEUTICS, INC., priority 2024, published 2025).

What was measured:
[1] = system: MTAP^DEL and KRAS^G12D pancreatic tumor xenograft KP4 model; test: MRTX1719 + KRAS G12D inhibitor combination study, KP4 xenograft; format: in vivo, nu/nu mice; conditions: MRTX1133 30 mg/kg BID IP; for Tumor volume: n=5/group, method gives mm^3, in mm³; for % TGI (Tumor Growth Inhibition): final vs initial treated tumor volume relative to vehicle, MRTX1719 100 mg/kg QD PO
Procedure: (§1) Immunodeficient female mice were implanted with human cancer models harboring homozygous deletion of the MTAP gene (MTAP^DEL) and a KRAS^G12D mutation. Mouse health was monitored daily, and caliper measurements began when tumors were palpable. Tumor volume measurements were determined utilizing the formula 0.5×L×W2 in which L refers to length and W refers to width of each tumor. When tumors reached approximately 200-300 mm^3, animals were randomized to receive A) vehicle, B) a PRMT5 inhibitor administered orally (PO) formulated in 0.5% methylcellulose (4000 cps)/0.2% Tween80 in water, C) KRAS G12D inhibitor administered via intraperitoneal injection (IP) formulated in 10% Captisol in 50 mM Citrate buffer pH 5.0, or D) the PRMT5 inhibitor and KRAS G12D inhibitor. Tumor volumes were measured twice a week (n=5/treatment group). Tumor Growth Inhibition (% TGI) was calculated when the average final treated tumor volume was greater than initial treated tumor volume using the formula: (1-(Final Drug Treated Tumor Volume—Initial Drug Treated Tumor Volume)/(Final Vehicle Treated Tumor Volume -Initial Vehicle Treated Tumor Volume))*100. Percent Regression (% Regression) was calculated when the average tumor volume of final treated tumors was less than initial treated tumor volume using the formula: (−100%)*(1−((Final treated tumor volume)/(Initial treated tumor volume)).
(§2) This example was conducted in immunodeficient female nu/nu mice that were implanted with 5×10^6 KP4 pancreatic cancer cells in 50% Matrigel. according to the study procedure described above. The PRMT5 inhibitor was MRTX1719 administered at 100 mg/kg once a day (QD). MRTX1719 used is a described herein.
(§3) The KRAS^G12D inhibitor used in this example was MRTX1133 administered at 30 mg/kg twice a day (BID). MRTX1133 used is as described herein.

[2] = system: MTAP^DEL and KRAS^G12D pancreatic tumor xenograft SU8686 model; test: MRTX1719 + KRAS G12D inhibitor combination study, SU8686 xenograft; format: in vivo, nu/nu mice; conditions: for Tumor volume: MRTX1133 30 mg/kg BID IP, n=5/group, method gives mm^3
Procedure: as §1
as §2, with “5×10^6 SU8686” for “5×10^6 KP4”, “is as” for “is a”
as §3

[3] = Study Day 0, MRTX1719 100 mg/kg QD PO
[4] = Study Day 3, MRTX1719 100 mg/kg QD PO
[5] = Study Day 7, MRTX1719 100 mg/kg QD PO
[6] = Study Day 10, MRTX1719 100 mg/kg QD PO
[7] = Study Day 14, MRTX1719 100 mg/kg QD PO
[8] = Study Day 17, MRTX1719 100 mg/kg QD PO
[9] = Study Day 21, MRTX1719 100 mg/kg QD PO
[10] = Study Day 24, MRTX1719 100 mg/kg QD PO
[11] = Study Day 2, MRTX1719 100 mg/kg QD PO
[12] = Study Day 9, MRTX1719 100 mg/kg QD PO
[13] = Study Day 13, MRTX1719 100 mg/kg QD PO
[14] = Study Day 16, MRTX1719 100 mg/kg QD PO
[15] = Study Day 20, MRTX1719 100 mg/kg QD PO
[16] = Study Day 23, MRTX1719 100 mg/kg QD PO
[17] = Study Day 28, MRTX1719 100 mg/kg QD PO
[18] = Study Day 31, MRTX1719 100 mg/kg QD PO
[19] = Study Day 34, MRTX1719 100 mg/kg QD PO
[20] = Study Day 37, MRTX1719 100 mg/kg QD PO
[21] = Study Day 41, MRTX1719 100 mg/kg QD PO
[22] = Study Day 44, MRTX1719 100 mg/kg QD PO
[23] = Study Day −1, MRTX1719 100 mg/kg QD PO

Row | SMILES | Tumor volume [1, 3] | Tumor volume [1, 4] | Tumor volume [1, 5] | Tumor volume [1, 6] | Tumor volume [1, 7] | Tumor volume [1, 8] | Tumor volume [1, 9] | Tumor volume [1, 10] | % TGI (Tumor Growth Inhibition) [1] [%] | Tumor volume [2, 11] [mm³] | Tumor volume [2, 5] [mm³] | Tumor volume [2, 12] [mm³] | Tumor volume [2, 13] [mm³] | Tumor volume [2, 14] [mm³] | Tumor volume [2, 15] [mm³] | Tumor volume [2, 16] [mm³] | Tumor volume [2, 17] [mm³] | Tumor volume [2, 18] [mm³] | Tumor volume [2, 19] [mm³] | Tumor volume [2, 20] [mm³] | further results
1 | Cn1ncc(-c2ccc3c(=O)[nH]nc(CN)c3c2)c1-c1c(F)c(Cl)cc(OC2CC2)c1C#N [MRTX1719] | 277 | 431 | 616 | 716 | 772 | 887 | 1222 | 1487 | 29.1 | 255 | 317 | 369 | 415 | 464 | 467 | 419 | 396 | 373 | 372 | 362 | Tumor volume [2, 21]: 356 mm³; Tumor volume [2, 22]: 337 mm³; Tumor volume [2, 23]: 200 mm³; % TGI (Tumor Growth Inhibition) ([2]; final vs initial treated tumor volume relative to vehicle, MRTX1719 100 mg/kg QD PO): 88.3%
2 | C#Cc1c(F)ccc2cc(O)cc(-c3ncc4c(N5CC6CCC(C5)N6)nc(OC[C@@]56CCCN5C[C@H](F)C6)nc4c3F)c12 [MRTX1133] | 276 | 202 | 132 | 99 | 80 | 91 | 144 | 250 | 53.8 | 180 | 143 | 142 | 146 | 145 | 164 | 166 | 151 | 183 | 191 | 209 | Tumor volume [1, 17]: 518; Tumor volume [1, 18]: 766; Tumor volume ([1]; Study Day 35, MRTX1719 100 mg/kg QD PO): 1064; Tumor volume [2, 21]: 213 mm³; Tumor volume [2, 22]: 204 mm³; Tumor volume [2, 23]: 212 mm³; % Regression ([2]; final vs initial treated tumor volume, MRTX1133 30 mg/kg BID IP alone or with MRTX1719 100 mg/kg QD PO): −4.2%
